Patent publication US20240002375A1, “2-(INDAZOL-5-YL)-6-(PIPERIDIN-4-YL)-1,7-NAPHTHYRIDINE DERIVATIVES AND RELATED COMPOUNDS AS MODULATORS FOR SPLICING NUCLEIC ACIDS AND FOR THE TRE” (REMIX THERAPEUTICS INC., priority 2020, published 2024)

How the values were obtained:
Assay type in all cases: cell-based
HTT mRNA = assay: Splicing assay (RT-qPCR) of HTT mRNA alternative junction (AJ) and canonical junction (CJ); conditions: A673 or K562 cells, 24 hours; for IC50: decrease in CJ mRNA, read-out: HTT CJ IC50; for AC50: increase in AJ mRNA, read-out: HTT AJ AC50
Protocol: Compounds described herein were used to modulate RNA transcript abundance in cells. The expression of a target mRNA was measured by detecting the formation of an exon-exon junction in the canonical transcript (CJ). A compound mediated exon-inclusion event was detected by observing an increase in formation of a new junction with an alternative exon (AJ). Real-time qPCR assays were used to detect these splicing switches and interrogate the potency of various compounds towards different target genes. A high-throughput real time quantitative PCR (RT-qPCR) assay was developed to measure these two isoforms of the mRNA (CJ and AJ) for an exemplary gene, HTT, together with a control housekeeping gene, GAPDH or GUSB or PPIA, used for normalization. Briefly, the A673 or K562 cell line was treated with various compounds described herein (e.g., compounds of Formula (I) or (II)). After treatment, the levels of the HTT mRNA targets were determined from each sample of cell lysate by cDNA synthesis followed by qPCR.
Materials: • Cells-to-CT 1-step kit: ThermoFisher A25602, Cells-to-CT lysis reagent: ThermoFisher 4391851C, TagMan™ Fast Virus 1-Step Master Mix: ThermoFisher 4444436 • GAPDH: VIC-PL, ThermoFisher 4326317E (Assay: Hs99999905_ml)—used for K562/suspension cell lines • GUSB: VIC-PL, ThermoFisher 4326320E (Assay: Hs99999908 ml)—used for K562/suspension cell lines • PPIA: VIC-PL, ThermoFisher 4326316E (Assay: Hs99999904 ml)—used for A673/adherent cell lines
The A673 cell line was cultured in DMEM with 10% FBS. Cells were diluted with full growth media and plated in a 96-well plate (15,000 cells in 100 ul media per well). The plate was incubated at 37° C. with 5% CO2 for 24 hours to allow cells to adhere. An 11-point 3-fold serial dilution of the compounds was made in DMSO then diluted in media in an intermediate plate. Compounds were transferred from the intermediate plate to the cell plate with the top dose at a final concentration of 10 uM in the well. Final DMSO concentration was kept at or below 0.25%. The cell plate was returned to the incubator at 37° C. with 5% CO2 for an additional 24 hours.
The K562 cell line was cultured in IMDM with 10% FBS. For K562, cells were diluted with full growth media and plated in either a 96-well plate (50,000 cells in 50 uL media per well) or a 384-well plate (8,000-40,000 cells in 45 uL media per well). An 11-point 3-fold serial dilution of the compounds were made in DMSO then diluted in media in an intermediate plate. Compound was transferred from the intermediate plate to the cell plate with the top dose at a final concentration of 10 uM in the well. Final DMSO concentration was kept at or below 0.25%. Final volume was 100 uL for 96-well plate and 50 uL for 384-well plate. The cell plate was then placed in an incubator at 37° C. with 5% CO2 for 24 hours.
The cells were then gently washed with 50 uL-100 uL cold PBS before proceeding to addition of lysis buffer. 30 uL-50 uL of room temperature lysis buffer with DNAse I (and optionally RNAsin) was added to each well. Cells were shaken/mixed thoroughly at room temperature for 5-10 minutes for lysis to take place and then 3 uL-5 uL of room temperature stop solution was added and wells were shaken/mixed again. After 2-5 minutes, the cell lysate plate was transferred to ice for RT-qPCR reaction setup. The lysates could also be frozen at −80° C. for later use.
In some cases, a direct lysis buffer was used. An appropriate volume of 3X lysis buffer (10 mM Tris, 150 mM NaCl, 1.5%-2.5% Igepal and 0.1-1 U/uL RNAsin, pH 7.4) was directly added to either K562 or A673 cells in media and mixed by pipetting 3 times. The plates were then incubated at room temperature with shaking/rocking for 20-50 minutes to allow for lysis to take place. After this time, the cell lysate plate was transferred to ice to set up for the RT-qPCR reactions. The lysates could also be frozen at −80° C. for later use. […]

HTT CJ mRNA = assay: Gene panel canonical junction qPCR splicing assay, HTT; conditions: Table 4, read-out: HTT IC50 (decrease in CJ mRNA levels)
Protocol: (§1) Compounds described herein were used to modulate RNA transcript abundance in cells. The expression of a target mRNA was measured by detecting the formation of an exon-exon junction in the canonical transcript (CJ). A compound mediated exon-inclusion event was detected by observing an increase in formation of a new junction with an alternative exon (AJ). Real-time qPCR assays were used to detect these splicing switches and interrogate the potency of various compounds towards different target genes. A high-throughput real time quantitative PCR (RT-qPCR) assay was developed to measure these two isoforms of the mRNA (CJ and AJ) for an exemplary gene, HTT, together with a control housekeeping gene, GAPDH or GUSB or PPIA, used for normalization. Briefly, the A673 or K562 cell line was treated with various compounds described herein (e.g., compounds of Formula (I) or (II)). After treatment, the levels of the HTT mRNA targets were determined from each sample of cell lysate by cDNA synthesis followed by qPCR. The data analysis was performed by first determining the ΔCt vs the housekeeper gene. This ΔCt was then normalized against the DMSO control (ΔΔCt) and converted to RQ (relative quantification) using the 2^(−ΔΔCt) equation. The RQ were then converted to a percentage response by arbitrarily setting an assay window of 3.5 ΔCt for HTT-CJ and an assay window of 9 ΔCt for HTT-AJ. […] The percentage response was then fitted to the 4 parametric logistic equation to evaluate the concentration dependence of compound treatment. The increase in AJ mRNA is reported as AC50 (compound concentration having 50% response in AJ increase) while the decrease in CJ mRNA levels is reported as IC50 (compound concentration having 50% response in CJ decrease). Additional studies were carried out for a larger panel of genes using the protocol provided above. The junction between flanking upstream and downstream exons was used to design canonical junction qPCR assays. At least one of the forward primer, reverse primer or the CY5-labeled 5′ nuclease probe (with 3′ quencher such as ZEN/Iowa Black FQ) was designed to overlap with the exon junction to capture the CJ mRNA transcript. BLAST was used to confirm the specificity of the probeset and parameters such as melting temperature, GC content, amplicon size, and primer dimer formation are considered during their design. Data for the decrease in CJ mRNA levels for three exemplary genes (HTT, SMN2, and Target C) analyzed in this panel are reported as IC50 (compound concentration having 50% response in CJ decrease).

SMN2 CJ mRNA = assay: Gene panel canonical junction qPCR splicing assay, SMN2; conditions: Table 4, read-out: SMN2 IC50 (decrease in CJ mRNA levels)
Protocol: as §1

Target C CJ mRNA = assay: Gene panel canonical junction qPCR splicing assay, Target C; conditions: Table 4, read-out: Target C IC50 (decrease in CJ mRNA levels)
Protocol: as §1

Row | SMILES | IC50 (HTT mRNA) | AC50 (HTT mRNA) | IC50 (HTT CJ mRNA) | IC50 (SMN2 CJ mRNA) | IC50 (Target C CJ mRNA)
1 | Cn1cc2cc(-c3ccc4nc(N5CC[C@H](NC6COC6)C5)ccc4n3)c(O)cc2n1 (stereo in doubt) [Compound 189] | 1000 to 10000 nM | 100 to 1000 nM | 1000 to 10000 nM | < 100 nM | 1000 to 10000 nM
2 | Cn1cc2cc(-c3ccc4nc(C5CCNCC5)ccc4n3)c(C#N)cc2n1 [Compound 204, 2-methyl-5-[6-(piperidin-4-yl)-1,5-naphthyridin-2-yl]indazole-6-carbonitrile] | 1000 to 10000 nM | 1000 to 10000 nM | 1000 to 10000 nM | 100 to 1000 nM | > 10000 nM
3 | COc1cc2nc(C)oc2cc1-c1ccc2nc(N3CCC(NC(C)(C)C)C3)ccc2n1 (centres unmarked) [Compound 177, N-tert-butyl-1-[6-(5-methoxy-2-methyl-1,3-benzoxazol-6-yl)-1,5-naphthyridin-2-yl]pyrrolidin-3-amine] | 1000 to 10000 nM | 1000 to 10000 nM | 1000 to 10000 nM | 1000 to 10000 nM | 1000 to 10000 nM
4 | Cn1cc2c(O)c(-c3cc4ccc(C5CCNCC5)nc4cn3)ccc2n1 [Compound 106, 2-methyl-5-[2-(piperidin-4-yl)-1,7-naphthyridin-6-yl]indazol-4-ol] | 1000 to 10000 nM | 1000 to 10000 nM | 1000 to 10000 nM | 100 to 1000 nM | 1000 to 10000 nM
5 | Cn1cc2cc(-c3ccc4nc(N5CCC56CCNC6)ccc4n3)c(O)cc2n1 (centres unmarked) [Compound 162] | > 10000 nM | > 10000 nM | > 10000 nM | 1000 to 10000 nM | > 10000 nM
6 | Cn1cc2cc(-c3ccc4nc(N5CCNC6(CC6)C5)ccc4n3)c(O)cc2n1 [Compound 121, 5-(6-[4,7-diazaspiro[2.5]octan-7-yl]-1,5-naphthyridin-2-yl)-2-methylindazol-6-ol] | 1000 to 10000 nM | 1000 to 10000 nM | 1000 to 10000 nM | 1000 to 10000 nM | 1000 to 10000 nM
7 | Cn1cc2nc(-c3ccc4nc(N5CCC(NC(C)(C)C)C5)ccc4n3)c(F)cc2n1 (centres unmarked) [Compound 207] | 1000 to 10000 nM | 1000 to 10000 nM | 1000 to 10000 nM | 1000 to 10000 nM | 1000 to 10000 nM
8 | Cc1nc2c(C)c(O)c(-c3ccc4nc(N5CCC(NC(C)(C)C)C5)ccc4n3)cc2o1 (single isomer, unassigned) [Compound 214, 6-{6-[3-(tert-butylamino)pyrrolidin-1-yl]-1,5-naphthyridin-2-yl}-2,4-dimethyl-1,3-benzoxazol-5-ol] | < 100 nM | < 100 nM | < 100 nM | < 100 nM | < 100 nM
9 | Cc1nc2cc(O)c(-c3ccc4nc(N5CC[C@@H](NC(C)(C)C)C5)ccc4n3)cc2o1 [Compound 210] | < 100 nM | < 100 nM | < 100 nM | < 100 nM | 1000 to 10000 nM
10 | Cc1cn2cc(-c3ccc4nc(N5CCC(NC(C)(C)C)C5)ccc4n3)cc(C)c2n1 (centres unmarked) [Compound 201] | 100 to 1000 nM | 100 to 1000 nM | 100 to 1000 nM | < 100 nM | 100 to 1000 nM
11 | Cn1cc2cc(-c3ccc4nc(N5CCC(NC(C)(C)C)C5)ccc4n3)c(O)cc2n1 (centres unmarked) [Compound 127, 5-[6-[3-(tert-butylamino)pyrrolidin-1-yl]-1,5-naphthyridin-2-yl]-2-methylindazol-6-ol] | < 100 nM | < 100 nM | < 100 nM | < 100 nM | < 100 nM
12 | Cc1nc2cc(O)c(-c3ccc4nc(N5CC[C@H](NC(C)(C)C)C5)ccc4n3)cc2o1 [Compound 209] | < 100 nM | < 100 nM | < 100 nM | < 100 nM | < 100 nM
13 | Cn1cc2cc(-c3ncc4nc(C5CCNCC5)ccc4n3)c(O)cc2n1 [Compound 107, 2-methyl-5-[6-(piperidin-4-yl)pyrido[3,2-d]pyrimidin-2-yl]indazol-6-ol] | 100 to 1000 nM | 100 to 1000 nM | 100 to 1000 nM | < 100 nM | 1000 to 10000 nM
